The values below come from patent US20210300900A1, “OGA INHIBITOR COMPOUNDS” (Janssen Pharmaceutica NV, priority 2018, published 2021).

The assay deals with T1, recombinant human Meningioma Expressed Antigen 5 (MGEA5), also referred to as O-GcNAcase (OGA) (Homo sapiens, UniProt O60502).
T1 construct: Full length OGA enzyme was purchased at OnGene (cat #TP322411); purchased OnGene (so in the source)
T1 sequence (O60502 1-916): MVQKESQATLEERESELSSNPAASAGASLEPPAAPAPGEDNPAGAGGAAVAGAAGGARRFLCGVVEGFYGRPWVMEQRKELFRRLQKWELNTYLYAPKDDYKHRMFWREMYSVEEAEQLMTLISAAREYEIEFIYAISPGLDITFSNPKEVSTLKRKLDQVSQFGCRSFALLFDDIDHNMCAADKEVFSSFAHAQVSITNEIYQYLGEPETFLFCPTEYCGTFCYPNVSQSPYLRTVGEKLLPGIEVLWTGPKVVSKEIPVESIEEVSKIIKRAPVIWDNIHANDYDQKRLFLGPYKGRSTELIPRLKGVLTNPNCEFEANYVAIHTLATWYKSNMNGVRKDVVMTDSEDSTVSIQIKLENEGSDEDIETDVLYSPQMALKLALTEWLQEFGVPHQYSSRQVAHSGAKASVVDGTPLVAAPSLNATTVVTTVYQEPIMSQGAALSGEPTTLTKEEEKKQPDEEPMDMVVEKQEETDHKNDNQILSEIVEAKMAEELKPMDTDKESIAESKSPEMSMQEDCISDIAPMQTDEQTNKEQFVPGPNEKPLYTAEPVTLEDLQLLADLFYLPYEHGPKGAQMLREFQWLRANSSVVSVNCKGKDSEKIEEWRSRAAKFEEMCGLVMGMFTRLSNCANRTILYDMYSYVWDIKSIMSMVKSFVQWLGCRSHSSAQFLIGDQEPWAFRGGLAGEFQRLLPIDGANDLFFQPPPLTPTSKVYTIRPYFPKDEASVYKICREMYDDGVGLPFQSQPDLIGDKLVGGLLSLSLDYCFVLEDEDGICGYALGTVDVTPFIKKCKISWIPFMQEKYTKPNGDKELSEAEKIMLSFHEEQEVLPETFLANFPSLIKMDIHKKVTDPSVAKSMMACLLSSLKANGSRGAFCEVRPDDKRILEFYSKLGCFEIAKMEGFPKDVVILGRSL
Briefly: OGA biochemical assay (inhibition of FM-GlcNAc hydrolysis, fluorescence). As to conditions: FM-GlcNAc substrate; for Emax: read-out: Enzymatic Emax (%); for IC50: read-out: Enzymatic hOGA, pIC50 (converted). The text has this:
The assay is based on the inhibition of the hydrolysis of fluorescein mono-β-D-N-Acetyl-Glucosamine (FM-GlcNAc) (Mariappa et al. 2015, Biochem J 470:255) by the recombinant human Meningioma Expressed Antigen 5 (MGEA5), also referred to as O-GcNAcase (OGA). The hydrolysis FM-GlcNAc (Marker Gene technologies, cat #M1485) results in the formation of B-D-N-glucosamineacetate and fluorescein. The fluorescence of the latter can be measured at excitation wavelength 485 nm and emission wavelength 538 nm. An increase in enzyme activity results in an increase in fluorescence signal. Full length OGA enzyme was purchased at OnGene (cat #TP322411). The enzyme was stored in 25 mM Tris.HCl, pH 7.3, 100 mM glycine, 10% glycerol at −20° C. Thiamet G and GlcNAcStatin were tested as reference compounds (Yuzwa et al. 2008 Nature Chemical Biology 4:483; Yuzwa et al. 2012 Nature Chemical Biology 8:393). The assay was performed in 200 mM Citrate/phosphate buffer supplemented with 0.005% Tween-20. 35.6 g Na2HPO4 2H2O (Sigma, #C0759) were dissolved in 1 L water to obtain a 200 mM solution. 19.2 g citric acid (Merck, #1.06580) was dissolved in 1 L water to obtain a 100 mM solution. pH of the sodiumphosphate solution was adjusted with the citric acid solution to 7.2. The buffer to stop the reaction consists of a 500 mM Carbonate buffer, pH 11.0. 734 mg FM-GlcNAc were dissolved in 5.48 mL DMSO to obtain a 250 mM solution and was stored at −20° C. OGA was used at a 2 nM concentration and FM-GlcNAc at a 100 uM final concentration. Dilutions were prepared in assay buffer.
50 nl of a compound dissolved in DMSO was dispensed on Black Proxiplate TM 384 Plus Assay plates (Perkin Elmer, #6008269) and 3 μl fl-OGA enzyme mix added subsequently. Plates were pre-incubated for 60 min at room temperature and then 2 μl FM-GlcNAc substrate mix added. […] Plates were briefly centrifuged for 1 min at 1000 rpm and incubate at room temperature for 6 h. To stop the reaction 5 μl STOP buffer were added and plates centrifuge again 1 min at 1000 rpm. Fluorescence was quantified in the Thermo Scientific Fluoroskan Ascent or the PerkinElmer EnVision with excitation wavelength 485 nm and emission wavelength 538 nm.
For analysis a best-fit curve is fitted by a minimum sum of squares method. From this an IC50 value and Hill coefficient was obtained. High control (no inhibitor) and low control (saturating concentrations of standard inhibitor) were used to define the minimum and maximum values.

Broadly, the Emax is the maximal effect, on the per cent scale that the assay sets.

Bounds are passed on as bounds.

For `COc1cncc(C[C@H]2CCN(C(C)c3cccc(OC)n3)C2)c1` (mixture of isomers) [Product 143], the Emax turned out to be 38% and the IC50 was over 10 µM.

On to `COc1cccc(C(C)N2CC[C@H](Cc3cncc(F)c3)C2)n1` (mixture of isomers) [Product 144], for which the maximal effect (Emax) was found to be 43.4% and the IC50 is over 10 µM.

As to `COc1cccc(C(C)N2CC[C@H](Cc3cccnc3C(F)(F)F)C2)n1` (mixture of isomers) [Product 145], the Emax worked out at 44.3% and the IC50 was over 10 µM.

Take `COc1cccc(C(C)N2CC[C@H](Cc3ccncc3F)C2)n1` (mixture of isomers) [Product 146]: the maximal effect (Emax) was determined as 33.1% and the IC50 is over 10 µM.

Take `COc1cccc(C(C)N2CC[C@H](Cc3cccc(C(F)(F)F)n3)C2)n1` (mixture of isomers) [Product 147]: the Emax came to 14.4% and the IC50 is over 10 µM.

With `COc1cccc(C(C)N2CC[C@H](Cc3ncccc3F)C2)n1` (mixture of isomers) [Product 148], the maximum response (Emax) was 11.3% and the IC50 was over 10 µM.

For the compound `COc1cccc(C[C@H]2CCN(C(C)c3cccc(OC)n3)C2)n1` (mixture of isomers) [Product 149], the maximal response (Emax) worked out at 30.3% and the IC50 is over 10 µM.

Take `COc1ccc(C[C@H]2CCN(C(C)c3cccc(OC)n3)C2)nc1` (mixture of isomers) [Product 150]: the Emax was found to be 46% and the IC50 was over 10 µM.

Turning to `COc1cccc(C(C)N2CC[C@H](Cc3ncccc3OC)C2)n1` (mixture of isomers) [Product 151], the maximal response (Emax) was 11.8% and the IC50 was over 10 µM.

Regarding `CNC(=O)c1nc(C(C)N2CC[C@@H](Cc3cc(C)nc(C)c3)C2)c[nH]1` (mixture of isomers) [Product 163], the Emax was 29% and the IC50 was over 10 µM.

`CCOc1cc(C[C@@H]2CCN(C(C)c3c[nH]c(OCC)n3)C2)ccn1` (mixture of isomers) [Product 164]: the Emax was 26% and the IC50 is over 10 µM.

For the compound `CCOc1cccc(C(C)N2CCCC(Cc3cc(C)nc(C)c3)C2)n1` (single isomer, unassigned) [Product 50], the Emax was found to be 16% and the IC50 was over 10 µM.

For the compound `Cc1cc(C[C@H]2CCCN(C(C)c3nc(OC4CCC4)ccc3F)C2)cc(C)n1` (single isomer, unassigned) [Product 55], the Emax came to 97% and the IC50 is 0.302 µM.

Consider `CCNc1cc(CN2CCC[C@H](Cc3cc(C)nc(C)c3)C2)n[nH]1` [Product 2], for which the maximal response (Emax) was 93% and the IC50 was 1.05 µM.

In the case of `CC(=O)Nc1cc([C@@H](C)N2CCC[C@H](Cc3cc(C)nc(C)c3)C2)n[nH]1` [Product 4], the “Enzymatic Emax (%)” value was 100% and the “Enzymatic hOGA; pIC50” value is recorded as 6.61.

Take `CC(=O)N(C)c1cc(CN2CCC[C@H](Cc3cc(C)nc(C)c3)C2)n[nH]1` [Product 10]: the maximal effect (Emax) worked out at 90% and the IC50 is 1.32 µM.

Regarding `CC(=O)Nc1cc(CN2CCC[C@H](Cc3cc(C)nc(C)c3)C2)n(C)n1` [Product 11], the maximal response (Emax) is 90% and the IC50 was 1.35 µM.

As to `CC(=O)Nc1[nH]nc([C@@H](C)N2CCC[C@H](Cc3cc(C)nc(C)c3)C2)c1C` [Product 12], the “Enzymatic Emax (%)” value is on record as 36% and the “Enzymatic hOGA; pIC50” value is reported as under 5.

On to `CC(=O)Nc1[nH]nc([C@H](C)N2CCC[C@H](Cc3cc(C)nc(C)c3)C2)c1C` [Product 13], for which the “Enzymatic Emax (%)” value is recorded as 7% and the “Enzymatic hOGA; pIC50” value was under 5.

For the compound `CCOc1cc([C@@H](C)N2CCC[C@H](Cc3cc(C)nc(C)c3)C2)n[nH]1` [Product 15], the “Enzymatic Emax (%)” value is on record as 65% and the “Enzymatic hOGA; pIC50” value was found to be 5.27.

With `CCOc1nc(CN2CCC[C@H](Cc3cc(C)nc(C)c3)C2)c(Br)[nH]1` [Product 22], the Emax is 63% and the IC50 was 6.61 µM.

For `Cc1cc(C[C@H]2CCCN(Cc3c[nH]c(C)n3)C2)cc(C)n1` [Product 25], the maximum response (Emax) was found to be 82% and the IC50 was 3.02 µM.

As to `CCOc1ncc(CN2CCC[C@H](Cc3cc(C)nc(C)c3)C2)s1` [Product 26], the Emax turned out to be 71% and the IC50 was 4.57 µM.

Consider `CC(=O)Nc1cc(CN2CCC[C@H](Cc3cc(C)nc(C)c3)C2)cs1` [Product 27], for which the Emax came to 89% and the IC50 is 1.05 µM.

Turning to `CC(=O)Nc1ccnc(CN2CCC[C@H](Cc3cc(C)nc(C)c3)C2)c1` [Product 31], the maximum response (Emax) amounted to 63% and the IC50 is 6.46 µM.

As for `CC(=O)Nc1ccnc(C(C)N2CCC[C@H](Cc3cc(C)nc(C)c3)C2)c1` (stereo partly drawn) [Product 32], the Emax worked out at 95% and the IC50 is 0.49 µM.

Turning to `COc1ccc(F)c([C@@H](C)N2CCC[C@H](Cc3cc(C)nc(C)c3)C2)n1` [Product 41], the “Enzymatic Emax (%)” value is 44% and the “Enzymatic hOGA; pIC50” value was under 5.

In the case of `COc1cccc([C@@H](C)N2CCC[C@H](Cc3cc(C)nc(C)c3)C2)n1` [Product 46], the “Enzymatic Emax (%)” value is given as 12% and the “Enzymatic hOGA; pIC50” value is recorded as under 5.

In the case of `CCOc1cccc([C@@H](C)N2CCC[C@H](Cc3cc(C)nc(C)c3)C2)n1` [Product 51], the “Enzymatic Emax (%)” value was found to be 102% and the “Enzymatic hOGA; pIC50” value turned out to be 7.01.

Turning to `Cc1cc(C[C@H]2CCCN([C@H](C)c3nc(OC4CCC4)ccc3F)C2)cc(C)n1` [Product 54], the “Enzymatic Emax (%)” value is listed as 10% and the “Enzymatic hOGA; pIC50” value is listed as under 5.

For `COc1ccc(C)c([C@@H](C)N2CCC[C@H](Cc3cc(C)nc(C)c3)C2)n1` [Product 57], the “Enzymatic Emax (%)” value was 6% and the “Enzymatic hOGA; pIC50” value is under 5.

As for `COc1ccc(C)c([C@H](C)N2CCC[C@H](Cc3cc(C)nc(C)c3)C2)n1` [Product 58], the “Enzymatic Emax (%)” value turned out to be 96% and the “Enzymatic hOGA; pIC50” value was determined as 6.1.

Take `Cc1cc(C[C@H]2CCCN([C@@H](C)c3cccc(C4CC4)n3)C2)cc(C)n1` [Product 60]: the “Enzymatic Emax (%)” value stood at 88% and the “Enzymatic hOGA; pIC50” value turned out to be 5.81.

`CC(=O)Nc1cc(CN2CCC[C@H](Cc3cc(C)nc(C)c3)C2)cnn1` [Product 62]: the Emax was determined as 94% and the IC50 is 0.513 µM.

`COc1cc(C[C@H]2CCCN(C(C)c3nc(OC)ccc3F)C2)cc(C)n1` (stereo partly drawn) [Product 69]: the IC50 is 0.0759 µM. Moreover, the “Enzymatic Emax (%)” value (listed as 69) came out at 103%.

As for `COc1ccc(F)c(C(C)N2CCC[C@H](Cc3cc(C)nc(C(F)(F)F)c3)C2)n1` (stereo partly drawn) [Product 71], the maximal effect (Emax) was 104% and the IC50 is 0.0891 µM.
